Measurements: patent US10172837B2, “Insulin sensitisers and methods of treatment” (NAIA Metabolic, Inc., priority 2007, dated 2019)

Legend:
Format in all cases: in vivo, Mus Musculus
[1] = system: Diet-Induced Obese (DIO) Mice; assay: ipGTT (glucose tolerance) in diet-induced obese mice; conditions: for AUC Day −1: before dosing
[2] = system: Diet-Induced Obese (DIO) Mice; assay: Fasting plasma glucose in diet-induced obese mice; conditions: for FPG Day −1: before dosing
db/db mice = assay: Fasting plasma glucose in db/db mice; conditions: for FPG Day 0: Metformin 300 mg/kg group
Source text: The db/db mouse model comprises mice with a homozygous mutation of the leptin receptor gene that ablates leptin signalling in the hypothalamus and elsewhere. The db/db mouse model is commonly used to study the genetic and physiological mechanisms of obesity and type II diabetes. […] Leptin acts through the leptin receptor to control whole-body energy homeostasis by regulating both appetite and energy expenditure. Loss of function of the leptin receptor gene results in hyperphagia and slower metabolism, leading to obesity and eventually diabetes. […] Dosing solutions of the test articles: Methazolamide, Metformin and Methazolamide/Metformin were prepared fresh on each dosing day and stored at room temperature, protected from light. The compound was formulated in sterile vehicle: […] Stock solutions were prepared by dissolving the compound in NMP:PEG300 (1:2, v/v). Saline was added to the stock solution prior to administration of the compound. The solutions were mixed by vortexing immediately prior to dosing to ensure a homogeneous suspension of the compound. Male C57Bl/6J db/db mice were obtained at 10 weeks of age from Animal Resources Centre ([…], Western Australia). Animals were individually housed and allowed free movement and ad libitum access to water and food. Animals were maintained on a 12 hour light (6 am-6 pm) and 12 hour dark (6 pm-6 am) cycle. Animals were monitored daily. Body weight, food and water intake were recorded 3 times a week. Mice were fed a standard chow diet, and used after a two week acclimatisation period. […] The fasting plasma glucose levels of the animals was tested prior to commencement of the study and then every 3-4 days during dosing. The animals were fasted for a period of 4 hours after dosing and prior to the taking of a blood sample via a tail nick. Blood glucose levels were monitored using commercially available glucometers (Accuchek Advantage, Roche) based on the electric current generated when a blood drop is spotted on a test strip resulting in conversion of the glucose present in the sample to gluconolactone by the glucose dehydrogenase enzyme, in the presence of the coenzyme (PQQ).

[3] = Body weight of treated diet-induced obese mice
Experimental: Male C57Bl/6J mice were obtained at 8 weeks of age from Animal Resources Centre (Canning Vale, Western Australia). Animals were individually housed and allowed free movement and ad libitum access to water and food. Animals were maintained on a 12 hour light (6 am-6 pm) and 12 hour dark (6 pm-6 am) cycle. Animals were monitored daily. Body weight, food and water intake were recorded 3 times a week.

[4] = Metformin 300 mg/kg oral gavage
[5] = Chlorthalidone 10 mg/kg oral gavage
[6] = Chlorthalidone 20 mg/kg oral gavage
[7] = Chlorthalidone 50 mg/kg oral gavage
[8] = Furosemide 10 mg/kg oral gavage
[9] = Furosemide 20 mg/kg oral gavage
[10] = Furosemide 50 mg/kg oral gavage
[11] = Acetazolamide 10 mg/kg b.i.d. oral gavage
[12] = Acetazolamide 20 mg/kg b.i.d. oral gavage
[13] = Acetazolamide 50 mg/kg b.i.d. oral gavage

CN(C)C(=N)N=C(N)N [Metformin]
AUC Day −1 ([1]; Metformin 300 mg/kg group): 1171 ± 81 mM·min
AUC Day 13 [1, 4]: 1307 ± 91 mM·min
AUC Day 13 Treat vs Veh [1, 4]: 8%
Delta AUC Day 13 vs Day −1 [1, 4]: 12%
FPG Day −1 ([2]; Metformin 300 mg/kg group): 6.1 ± 0.6 mM
Delta FPG Treatment Day 13 vs Day −1 [2, 4]: 11%
Delta FPG Treatment vs Vehicle Day 13 [2, 4]: −11%
FPG Day 13 [2, 4]: 6.8 ± 0.4 mM
FPG Day 0 (db/db mice; before dosing (Table 9-1)): 23.86 ± 1.4 mM
FPG Day 0 (db/db mice; before dosing (Table 9-2)): 23.86 ± 1.4 mM
Delta FPG Treatment Day 8 vs Day 0 (db/db mice; [4]): −20%^2
Delta FPG Treatment Day 18 vs Day 0 (db/db mice; [4]): −16%^
FPG Day 8 (db/db mice; [4]): 19.10 ± 2.1 mM
FPG Day 18 (db/db mice; [4]): 20.01 ± 1.8 mM
FPG Treatment vs Vehicle Day 8 (db/db mice; [4]): −18%^
FPG Treatment vs Vehicle Day 18 (db/db mice; [4]): −27%^4

NS(=O)(=O)c1cc(C2(O)NC(=O)c3ccccc32)ccc1Cl (stereo not drawn) [Chlorthalidone]
effect on glucose tolerance of diet-induced obese mice [1]: no beneficial effect
AUC Day −1 ([1]; Chlorthalidone 10 mg/kg group): 1439 ± 137 mM·min
AUC Day 13 [1, 5]: 1660 ± 137 mM·min
AUC Treatment vs Vehicle Day 13 [1, 5]: 29%
Delta AUC Treatment Day 13 vs Day −1 [1, 5]: 15%
AUC Day −1 ([1]; Chlorthalidone 20 mg/kg group): 1416 ± 110 mM·min
AUC Day 13 [1, 6]: 1263 ± 75 mM·min
AUC Treatment vs Vehicle Day 13 [1, 6]: −2%
Delta AUC Treatment Day 13 vs Day −1 [1, 6]: −11%
AUC Day −1 ([1]; Chlorthalidone 50 mg/kg group): 1398 ± 87 mM·min
AUC Day 13 [1, 7]: 1512 ± 46 mM·min
AUC Treatment vs Vehicle Day 13 [1, 7]: 17%
Delta AUC Treatment Day 13 vs Day −1 [1, 7]: 8%
effect on fasting plasma glucose levels of diet-induced obese mice [2]: no beneficial effect
FPG Day −1 ([2]; Chlorthalidone 10 mg/kg group): 7.8 ± 0.31 mM
Delta FPG Treatment Day 13 vs Day −1 [2, 5]: 4%
FPG Day 13 [2, 5]: 8.08 ± 0.35 mM
FPG Treatment vs Vehicle Day 13 [2, 5]: 5%
FPG Day −1 ([2]; Chlorthalidone 20 mg/kg group): 7.58 ± 0.18 mM
Delta FPG Treatment Day 13 vs Day −1 [2, 6]: −7%
FPG Day 13 [2, 6]: 7.08 ± 0.31 mM
FPG Treatment vs Vehicle Day 13 [2, 6]: −8%
FPG Day −1 ([2]; Chlorthalidone 50 mg/kg group): 7.94 ± 0.4 mM
Delta FPG Treatment Day 13 vs Day −1 [2, 7]: −7%
FPG Day 13 [2, 7]: 7.4 ± 0.51 mM
FPG Treatment vs Vehicle Day 13 [2, 7]: −4%

NS(=O)(=O)c1cc(C(=O)O)c(NCc2ccco2)cc1Cl [Furosemide]
outcome of animals ([3]; 100 mg/kg/d, DIO mice): had to be euthanized
body weight lost ([3]; 100 mg/kg/d, in 5 days, DIO mice): ~6 g
body weight effect ([3]; DIO mice, consistent with a toxic effect): substantial body weight loss
FPG Day −1 ([2]; Furosemide 10 mg/kg group): 7.28 ± 0.3 mM
Delta FPG Treatment Day 13 vs Day −1 [2, 8]: 24%
FPG Day 13 [2, 8]: 9.02 ± 0.4 mM
FPG Treatment vs Vehicle Day 13 [2, 8]: 4%
FPG Day −1 ([2]; Furosemide 20 mg/kg group): 7.4 ± 0.4 mM
Delta FPG Treatment Day 13 vs Day −1 [2, 9]: 15%
FPG Day 13 [2, 9]: 8.50 ± 0.4 mM
FPG Treatment vs Vehicle Day 13 [2, 9]: −2%
FPG Day −1 ([2]; Furosemide 50 mg/kg group): 6.78 ± 0.3 mM
Delta FPG Treatment Day 13 vs Day −1 [2, 10]: 20%
FPG Day 13 [2, 10]: 8.16 ± 0.6 mM
FPG Treatment vs Vehicle Day 13 [2, 10]: −6%

CC(=O)Nc1nnc(S(N)(=O)=O)s1 [Acetazolamide]
difference in body weight between treated groups ([3]; Day 0 or Day 13, DIO mice): no difference in body weight
effect on glucose tolerance of diet-induced obese mice [1]: increased the glucose tolerance
AUC Day 13 [1, 11]: 944 ± 26 mM·min
AUC Treatment vs Vehicle Day 13 [1, 11]: −22%^2
Delta AUC Treatment Day 13 vs Day −1 [1, 11]: −30%^1
AUC Day −1 ([1]; Acetazolamide 10 mg/kg group): 1342 ± 88 mM·min
AUC Day 13 [1, 12]: 902 ± 98 mM·min
AUC Treatment vs Vehicle Day 13 [1, 12]: −25%^3
Delta AUC Treatment Day 13 vs Day −1 [1, 12]: −33%^1
AUC Day −1 ([1]; Acetazolamide 20 mg/kg group): 1340 ± 68 mM·min
AUC Day 13 [1, 13]: 1020 ± 144 mM·min
AUC Treatment vs Vehicle Day 13 [1, 13]: −15%^
Delta AUC Treatment Day 13 vs Day −1 [1, 13]: −23%^2
AUC Day −1 ([1]; Acetazolamide 50 mg/kg group): 1323 ± 109 mM·min
effect on fasting plasma glucose levels of diet-induced obese mice [2]: reduced the fasting plasma glucose levels
Delta FPG Treatment Day 13 vs Day −1 [2, 11]: −9%
FPG Day 13 [2, 11]: 5.76 ± 0.43 mM
FPG Treatment vs Vehicle Day 13 [2, 11]: −9%
FPG Day −1 ([2]; Acetazolamide 10 mg/kg group): 6.35 ± 0.5 mM
Delta FPG Treatment Day 13 vs Day −1 [2, 12]: −14%^2
FPG Day 13 [2, 12]: 5.46 ± 0.32 mM
FPG Treatment vs Vehicle Day 13 [2, 12]: −14%^1
FPG Day −1 ([2]; Acetazolamide 20 mg/kg group): 6.32 ± 0.42 mM
Delta FPG Treatment Day 13 vs Day −1 [2, 13]: −5%
FPG Day 13 [2, 13]: 6.28 ± 0.31 mM
FPG Treatment vs Vehicle Day 13 [2, 13]: −1%
FPG Day −1 ([2]; Acetazolamide 50 mg/kg group): 6.62 ± 0.38 mM
